Measured values taken from PMC11233931, “Remodeling tumor‐associated macrophage for anti‐cancer effects by rational design of irreversible inhibition of mitogen‐activated protein kinase‐activated protein kinase 2” (MedComm, 2024).

Experiments:
Assay in all cases: Eurofins kinase selectivity profile against 380 other human recombinant kinases (Table S2)
Type in all cases: biochemical
[1] = biological target: T1, 380 human recombinant protein kinases (Homo sapiens, UniProt P04626); settings: ErbB2(h), read-out: Inhibition rate
T1 construct: purchased Eurofins (Celle Lévescault)
Procedure, shortened: (§1)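 Off-target profiling: one compound assayed by a commercial provider over 380 recombinant human protein kinases at various concentrations.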

[2] = biological target: T2, 380 human recombinant protein kinases (Homo sapiens, UniProt P22694); settings: PKAcβ(h), read-out: Inhibition rate
T2 construct: purchased Eurofins (Celle Lévescault)
Procedure, shortened: as §1

[3] = biological target: T3, 380 human recombinant protein kinases (Homo sapiens, UniProt Q06187, R28H); settings: BTK(R28H)(h), read-out: Inhibition rate
T3 construct: purchased Eurofins (Celle Lévescault)
Procedure, shortened: as §1

[4] = biological target: T4, 380 human recombinant protein kinases (Homo sapiens, UniProt Q8N568); settings: DCAMKL2(h), read-out: Inhibition rate
T4 construct: purchased Eurofins (Celle Lévescault)
Procedure, shortened: as §1

[5] = biological target: T5, 380 human recombinant protein kinases (Homo sapiens, UniProt Q9NZJ5); settings: PEK(h), read-out: Inhibition rate
T5 construct: purchased Eurofins (Celle Lévescault)
T5 sequence (Q9NZJ5 30-1116): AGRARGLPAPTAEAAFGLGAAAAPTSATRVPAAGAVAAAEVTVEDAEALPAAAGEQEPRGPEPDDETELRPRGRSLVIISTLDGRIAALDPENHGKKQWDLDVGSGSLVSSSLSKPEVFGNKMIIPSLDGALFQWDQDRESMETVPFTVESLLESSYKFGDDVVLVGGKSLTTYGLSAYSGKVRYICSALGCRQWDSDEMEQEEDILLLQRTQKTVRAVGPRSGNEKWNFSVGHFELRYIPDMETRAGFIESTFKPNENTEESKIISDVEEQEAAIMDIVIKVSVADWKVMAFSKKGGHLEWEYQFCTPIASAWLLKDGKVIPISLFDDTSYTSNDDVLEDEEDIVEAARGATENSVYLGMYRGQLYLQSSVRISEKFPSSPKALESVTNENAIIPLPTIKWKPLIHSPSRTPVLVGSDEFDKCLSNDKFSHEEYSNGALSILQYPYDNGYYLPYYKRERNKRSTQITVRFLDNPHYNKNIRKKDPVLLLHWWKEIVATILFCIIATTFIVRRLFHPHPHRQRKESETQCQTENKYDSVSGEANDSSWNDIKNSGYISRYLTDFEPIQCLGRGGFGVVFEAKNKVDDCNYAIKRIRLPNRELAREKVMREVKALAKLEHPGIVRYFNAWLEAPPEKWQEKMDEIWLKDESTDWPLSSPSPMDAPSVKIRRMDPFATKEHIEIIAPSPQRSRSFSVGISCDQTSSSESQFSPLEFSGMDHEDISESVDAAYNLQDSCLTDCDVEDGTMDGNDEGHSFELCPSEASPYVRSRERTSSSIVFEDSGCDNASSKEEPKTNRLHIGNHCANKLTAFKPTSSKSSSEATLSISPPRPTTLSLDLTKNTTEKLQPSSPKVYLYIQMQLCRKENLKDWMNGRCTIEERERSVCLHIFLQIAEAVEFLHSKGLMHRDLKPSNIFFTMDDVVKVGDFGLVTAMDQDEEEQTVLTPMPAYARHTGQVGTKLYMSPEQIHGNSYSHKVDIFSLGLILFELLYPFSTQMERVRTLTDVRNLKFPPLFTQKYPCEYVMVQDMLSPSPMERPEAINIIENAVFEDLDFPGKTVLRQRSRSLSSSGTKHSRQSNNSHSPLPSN
Procedure, shortened: as §1

[6] = biological target: T6, 380 human recombinant protein kinases (Homo sapiens, UniProt Q9UPZ9); settings: ICK(h), read-out: Inhibition rate
T6 construct: purchased Eurofins (Celle Lévescault)
T6 sequence (Q9UPZ9 1-632): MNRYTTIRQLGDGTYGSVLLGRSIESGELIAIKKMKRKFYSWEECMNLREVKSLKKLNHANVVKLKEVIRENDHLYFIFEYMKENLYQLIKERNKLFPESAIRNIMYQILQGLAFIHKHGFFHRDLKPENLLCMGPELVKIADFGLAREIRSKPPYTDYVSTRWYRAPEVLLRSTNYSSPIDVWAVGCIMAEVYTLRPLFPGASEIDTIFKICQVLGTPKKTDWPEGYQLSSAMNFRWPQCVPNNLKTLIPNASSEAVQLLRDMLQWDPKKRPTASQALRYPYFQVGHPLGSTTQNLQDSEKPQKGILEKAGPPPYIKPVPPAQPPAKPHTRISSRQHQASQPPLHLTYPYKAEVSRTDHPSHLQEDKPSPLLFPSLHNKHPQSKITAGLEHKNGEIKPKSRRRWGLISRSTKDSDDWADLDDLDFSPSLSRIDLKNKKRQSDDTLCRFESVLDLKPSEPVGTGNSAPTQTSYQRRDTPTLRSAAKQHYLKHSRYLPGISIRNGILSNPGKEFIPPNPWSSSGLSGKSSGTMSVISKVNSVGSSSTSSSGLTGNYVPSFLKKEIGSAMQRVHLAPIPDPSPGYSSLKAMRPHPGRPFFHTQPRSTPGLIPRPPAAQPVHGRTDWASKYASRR
Procedure, shortened: as §1

[7] = biological target: T7, 380 human recombinant protein kinases (Homo sapiens, UniProt Q9Y243); settings: PKBγ(h), read-out: Inhibition rate
T7 construct: purchased Eurofins (Celle Lévescault)
Procedure, shortened: as §1

[8] = test system: 380 human recombinant protein kinases
Procedure, shortened: as §1

T7 sequence (Q9Y243 whole entry): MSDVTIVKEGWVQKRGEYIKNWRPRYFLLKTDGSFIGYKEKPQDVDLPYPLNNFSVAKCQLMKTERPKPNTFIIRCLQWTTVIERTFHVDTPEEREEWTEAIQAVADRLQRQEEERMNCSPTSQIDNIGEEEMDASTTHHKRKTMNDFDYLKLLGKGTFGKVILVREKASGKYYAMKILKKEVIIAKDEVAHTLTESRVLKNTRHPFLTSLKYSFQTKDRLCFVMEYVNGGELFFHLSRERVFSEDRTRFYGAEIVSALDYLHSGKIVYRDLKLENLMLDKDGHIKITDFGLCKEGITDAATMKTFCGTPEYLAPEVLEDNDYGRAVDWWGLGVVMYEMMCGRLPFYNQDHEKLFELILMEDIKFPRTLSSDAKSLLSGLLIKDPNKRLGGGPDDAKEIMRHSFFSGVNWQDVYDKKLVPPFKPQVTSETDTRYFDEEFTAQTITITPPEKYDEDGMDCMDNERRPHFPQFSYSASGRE
T1 sequence (P04626 23-1255): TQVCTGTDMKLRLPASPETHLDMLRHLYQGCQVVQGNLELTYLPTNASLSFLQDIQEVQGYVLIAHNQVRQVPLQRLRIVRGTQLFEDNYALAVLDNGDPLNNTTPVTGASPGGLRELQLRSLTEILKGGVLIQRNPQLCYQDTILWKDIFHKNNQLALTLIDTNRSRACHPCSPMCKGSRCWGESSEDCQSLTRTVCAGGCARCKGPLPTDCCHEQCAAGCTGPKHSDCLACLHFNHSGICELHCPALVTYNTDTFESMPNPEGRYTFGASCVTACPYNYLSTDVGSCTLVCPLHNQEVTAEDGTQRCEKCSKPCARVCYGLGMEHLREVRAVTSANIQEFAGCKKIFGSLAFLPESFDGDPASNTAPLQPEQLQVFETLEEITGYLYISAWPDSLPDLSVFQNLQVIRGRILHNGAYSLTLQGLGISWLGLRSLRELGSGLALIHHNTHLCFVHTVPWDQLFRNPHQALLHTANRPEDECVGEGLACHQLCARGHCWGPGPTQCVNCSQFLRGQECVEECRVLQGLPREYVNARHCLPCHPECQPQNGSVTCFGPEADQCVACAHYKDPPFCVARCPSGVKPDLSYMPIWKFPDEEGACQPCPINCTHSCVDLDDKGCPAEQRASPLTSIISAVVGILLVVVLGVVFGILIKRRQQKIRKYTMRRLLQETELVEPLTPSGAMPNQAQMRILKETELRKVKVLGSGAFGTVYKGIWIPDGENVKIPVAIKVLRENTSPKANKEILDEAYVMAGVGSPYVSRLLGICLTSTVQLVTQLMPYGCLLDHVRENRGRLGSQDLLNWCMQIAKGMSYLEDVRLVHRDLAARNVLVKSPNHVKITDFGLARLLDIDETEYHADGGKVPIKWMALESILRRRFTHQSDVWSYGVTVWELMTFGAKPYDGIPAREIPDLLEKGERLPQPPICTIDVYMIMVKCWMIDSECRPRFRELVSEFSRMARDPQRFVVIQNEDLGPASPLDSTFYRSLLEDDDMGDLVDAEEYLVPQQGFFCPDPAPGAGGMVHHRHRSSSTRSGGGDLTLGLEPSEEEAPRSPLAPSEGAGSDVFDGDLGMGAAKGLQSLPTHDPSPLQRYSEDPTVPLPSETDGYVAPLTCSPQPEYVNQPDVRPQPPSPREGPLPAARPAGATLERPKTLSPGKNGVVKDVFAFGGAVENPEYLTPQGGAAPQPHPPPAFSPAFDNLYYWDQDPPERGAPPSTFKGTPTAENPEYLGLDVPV
T3 sequence (Q06187 whole entry R28H): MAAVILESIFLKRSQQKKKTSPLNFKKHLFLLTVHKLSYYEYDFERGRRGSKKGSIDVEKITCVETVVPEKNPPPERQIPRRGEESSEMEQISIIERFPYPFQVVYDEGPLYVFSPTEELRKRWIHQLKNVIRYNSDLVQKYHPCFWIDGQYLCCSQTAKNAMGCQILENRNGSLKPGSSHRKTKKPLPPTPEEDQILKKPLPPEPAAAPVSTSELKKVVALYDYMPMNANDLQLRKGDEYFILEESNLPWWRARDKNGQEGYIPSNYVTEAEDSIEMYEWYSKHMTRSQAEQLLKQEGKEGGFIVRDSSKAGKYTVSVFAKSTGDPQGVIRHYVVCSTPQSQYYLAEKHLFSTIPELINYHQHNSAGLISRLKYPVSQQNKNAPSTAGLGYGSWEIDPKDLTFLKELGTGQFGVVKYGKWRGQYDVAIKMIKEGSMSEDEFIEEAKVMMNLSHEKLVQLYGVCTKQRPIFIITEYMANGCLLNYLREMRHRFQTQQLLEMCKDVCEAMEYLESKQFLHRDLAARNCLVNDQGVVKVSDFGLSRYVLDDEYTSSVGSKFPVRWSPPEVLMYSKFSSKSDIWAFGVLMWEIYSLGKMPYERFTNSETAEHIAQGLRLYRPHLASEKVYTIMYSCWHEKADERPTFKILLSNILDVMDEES
T4 sequence (Q8N568 whole entry): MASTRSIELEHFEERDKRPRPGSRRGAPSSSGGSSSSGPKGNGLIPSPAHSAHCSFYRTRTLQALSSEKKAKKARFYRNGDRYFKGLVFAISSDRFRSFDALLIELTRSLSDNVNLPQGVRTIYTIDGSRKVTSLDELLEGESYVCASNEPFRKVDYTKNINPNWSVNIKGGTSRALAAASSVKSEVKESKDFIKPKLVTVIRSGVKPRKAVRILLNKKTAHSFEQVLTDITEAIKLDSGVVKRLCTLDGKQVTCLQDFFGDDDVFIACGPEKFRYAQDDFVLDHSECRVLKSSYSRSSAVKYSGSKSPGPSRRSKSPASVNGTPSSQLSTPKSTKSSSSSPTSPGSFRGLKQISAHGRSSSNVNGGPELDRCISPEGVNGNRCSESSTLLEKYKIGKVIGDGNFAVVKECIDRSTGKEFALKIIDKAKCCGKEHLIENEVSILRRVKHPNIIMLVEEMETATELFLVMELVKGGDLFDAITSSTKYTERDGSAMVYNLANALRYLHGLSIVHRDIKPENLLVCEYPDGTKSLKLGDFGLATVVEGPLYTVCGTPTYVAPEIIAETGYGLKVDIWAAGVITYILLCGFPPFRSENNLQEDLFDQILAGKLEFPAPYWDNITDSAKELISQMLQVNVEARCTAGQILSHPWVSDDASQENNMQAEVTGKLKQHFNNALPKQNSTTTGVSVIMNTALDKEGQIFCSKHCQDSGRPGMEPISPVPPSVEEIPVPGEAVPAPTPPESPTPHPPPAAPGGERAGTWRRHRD

## C=CC(=O)Nc1cc(-c2cc(-c3cc4c([nH]3)CCNC4=O)ccn2)ccc1OC(F)(F)F [compound 11]
[1]; 10 nM
  inhibition at 0.01 µM: 10%
[1]; 100 nM
  inhibition at 0.1 µM: 5%
[1]; 1000 nM
  inhibition at 1 µM: 1%
[2]; 10 nM
  inhibition at 0.01 µM: -11%
[2]; 100 nM
  inhibition at 0.1 µM: -4%
[2]; 1000 nM
  inhibition at 1 µM: 5%
[3]; 10 nM
  inhibition at 0.01 µM: -27%
[3]; 100 nM
  inhibition at 0.1 µM: 6%
[3]; 1000 nM
  inhibition at 1 µM: 1%
[4]; 10 nM
  inhibition at 0.01 µM: 4%
[4]; 100 nM
  inhibition at 0.1 µM: 4%
[4]; 1000 nM
  inhibition at 1 µM: 4%
[5]; 10 nM
  inhibition at 0.01 µM: -1%
[5]; 100 nM
  inhibition at 0.1 µM: -9%
[5]; 1000 nM
  inhibition at 1 µM: 2%
[6]; 10 nM
  inhibition at 0.01 µM: 3%
[6]; 100 nM
  inhibition at 0.1 µM: 18%
[6]; 1000 nM
  inhibition at 1 µM: 8%
[7]; 10 nM
  inhibition at 0.01 µM: 0%
[7]; 100 nM
  inhibition at 0.1 µM: 3%
[7]; 1000 nM
  inhibition at 1 µM: 9%
[8]; 10 nM, all 380 kinases
  inhibitory rate on the other 380 kinases tested: less than 50%
[8]; 91.8% of total tested kinases
  selectivity for MK2 over the other tested kinases: more than 434 fold
[8]; ACTR2(h), 10 nM
  Inhibition rate: -9%
[8]; ACTR2(h), 100 nM
  Inhibition rate: -11%
[8]; ACTR2(h), 1000 nM
  Inhibition rate: -8%
[8]; MAPK1(h), 10 nM
  Inhibition rate: -1%
[8]; MAPK1(h), 100 nM
  Inhibition rate: 0%
[8]; MAPK1(h), 1000 nM
  Inhibition rate: 7%
[8]; PKCβII(h), 10 nM
  Inhibition rate: -1%
[8]; PKCβII(h), 100 nM
  Inhibition rate: 4%
[8]; PKCβII(h), 1000 nM
  Inhibition rate: 6%
[8]; PKG1β(h), 10 nM
  Inhibition rate: 7%
[8]; PKG1β(h), 100 nM
  Inhibition rate: 10%
[8]; PKG1β(h), 1000 nM
  Inhibition rate: 5%
